Experimental findings from publication PMC6925601 (European journal of medicinal chemistry, 2019) are described below.

Series [1] concerns the target T1, MKK7 (Homo sapiens, UniProt O14733).
T1 sequence (O14733 1-419): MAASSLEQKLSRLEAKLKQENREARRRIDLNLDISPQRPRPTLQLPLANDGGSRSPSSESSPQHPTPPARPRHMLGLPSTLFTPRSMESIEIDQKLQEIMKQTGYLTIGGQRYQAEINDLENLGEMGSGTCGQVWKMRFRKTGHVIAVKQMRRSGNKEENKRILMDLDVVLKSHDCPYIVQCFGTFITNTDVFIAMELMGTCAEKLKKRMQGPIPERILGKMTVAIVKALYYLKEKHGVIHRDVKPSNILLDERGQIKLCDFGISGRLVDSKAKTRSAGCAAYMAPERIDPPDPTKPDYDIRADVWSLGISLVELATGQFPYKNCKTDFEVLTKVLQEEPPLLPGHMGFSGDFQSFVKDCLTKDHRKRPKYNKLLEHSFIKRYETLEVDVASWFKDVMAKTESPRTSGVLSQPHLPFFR
Description: KINOMEscan kinase binding assay. Particulars: for Kd (μM) vs MKK7: KINOMEscan, duplicate, maximum concentration 30 μM.

The target in series [2] is T2, human neutrophil elastase (HNE) (Homo sapiens, UniProt P08246).
T2 sequence (P08246 30-247 limits assumed): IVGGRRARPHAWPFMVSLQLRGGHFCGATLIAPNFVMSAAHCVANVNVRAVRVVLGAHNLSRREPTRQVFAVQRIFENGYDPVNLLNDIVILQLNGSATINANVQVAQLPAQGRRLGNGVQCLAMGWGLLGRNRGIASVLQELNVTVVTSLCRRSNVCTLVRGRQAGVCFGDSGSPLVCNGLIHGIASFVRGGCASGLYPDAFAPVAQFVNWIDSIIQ
Description: HNE inhibitory assay. Type of series: biochemical.

The test system of series [3] is nine tumor cell lines and primary PBMCs. Description: Cytotoxicity across the panel of nine tumor cell lines and PBMCs. Type of series: cell-based, human. Particulars: 24 h; for IC50: Homo sapiens, PBMC, read-out: cytotoxic activity IC50 for most of the cell lines.
Series [4] deals with T3, MKK4 (Homo sapiens, UniProt P45985).
T3 sequence (P45985 1-399): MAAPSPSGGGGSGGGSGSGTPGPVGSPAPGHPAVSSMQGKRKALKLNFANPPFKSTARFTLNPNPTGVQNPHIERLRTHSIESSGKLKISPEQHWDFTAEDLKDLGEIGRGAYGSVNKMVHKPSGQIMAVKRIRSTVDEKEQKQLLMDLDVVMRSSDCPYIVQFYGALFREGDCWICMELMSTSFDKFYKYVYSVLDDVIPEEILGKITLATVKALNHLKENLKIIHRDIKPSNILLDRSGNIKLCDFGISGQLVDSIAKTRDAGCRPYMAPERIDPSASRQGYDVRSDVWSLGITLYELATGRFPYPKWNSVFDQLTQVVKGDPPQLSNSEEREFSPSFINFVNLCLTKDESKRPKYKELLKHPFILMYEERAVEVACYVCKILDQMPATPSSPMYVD
Description: KINOMEscan kinase binding assay. Conditions: for Kd for MKK4: KINOMEscan, data not shown.

Series [5] has as its target T4, Cdc25A (Homo sapiens, UniProt P30304).
T4 sequence (P30304 1-524): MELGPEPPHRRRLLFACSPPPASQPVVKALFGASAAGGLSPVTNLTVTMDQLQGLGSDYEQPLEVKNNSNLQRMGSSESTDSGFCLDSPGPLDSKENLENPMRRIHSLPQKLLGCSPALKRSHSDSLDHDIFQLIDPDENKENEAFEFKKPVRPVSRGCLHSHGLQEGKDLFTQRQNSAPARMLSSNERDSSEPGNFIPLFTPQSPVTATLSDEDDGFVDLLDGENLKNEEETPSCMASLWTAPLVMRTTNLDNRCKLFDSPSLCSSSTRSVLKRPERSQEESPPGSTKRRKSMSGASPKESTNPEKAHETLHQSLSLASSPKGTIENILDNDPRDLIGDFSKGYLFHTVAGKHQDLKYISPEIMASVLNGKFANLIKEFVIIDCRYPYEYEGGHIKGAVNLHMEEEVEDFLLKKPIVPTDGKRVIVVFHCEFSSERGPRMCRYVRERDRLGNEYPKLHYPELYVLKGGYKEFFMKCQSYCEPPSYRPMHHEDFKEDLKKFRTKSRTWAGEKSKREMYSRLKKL
Description: CycLex Cdc25A fluorometric phosphatase inhibition assay. Type of series: biochemical.

Series [6] concerns the target T5, Cdc25B (Homo sapiens, UniProt P30305).
T5 sequence (P30305 1-580): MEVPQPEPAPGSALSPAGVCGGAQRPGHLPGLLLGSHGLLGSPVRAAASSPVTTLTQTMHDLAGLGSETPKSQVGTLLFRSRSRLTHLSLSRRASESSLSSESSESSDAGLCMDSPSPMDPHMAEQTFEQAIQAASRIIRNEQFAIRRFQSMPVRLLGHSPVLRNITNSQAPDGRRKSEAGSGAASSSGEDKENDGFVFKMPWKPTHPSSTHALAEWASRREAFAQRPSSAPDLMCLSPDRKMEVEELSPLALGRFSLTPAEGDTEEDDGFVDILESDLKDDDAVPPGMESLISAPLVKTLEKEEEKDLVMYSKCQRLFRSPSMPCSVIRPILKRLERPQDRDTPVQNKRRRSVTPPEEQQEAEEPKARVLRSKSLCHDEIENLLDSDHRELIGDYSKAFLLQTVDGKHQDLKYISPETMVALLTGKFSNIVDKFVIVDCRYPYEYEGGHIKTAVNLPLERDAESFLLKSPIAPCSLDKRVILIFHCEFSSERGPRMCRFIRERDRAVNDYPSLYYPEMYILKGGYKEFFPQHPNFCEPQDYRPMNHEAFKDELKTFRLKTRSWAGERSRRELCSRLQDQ
Description: CycLex Cdc25B fluorometric phosphatase inhibition assay. Type of series: biochemical.

Where only a bound is given, the exact number is not on record here.

For the compound `CC(C)=CC[C@@H](O)C1=CC(=O)c2c(O)ccc(O)c2C1=O` [Compound 1, Shikonin], in series [1], the Kd (usually the free concentration of one partner at which half of the binding sites on the other are occupied at equilibrium, for simple one-to-one binding) is greater than 30 µM and the “Kd (μM) vs MKK7” value is recorded as “did not bind”. Besides, in series [2], the 50% inhibitory concentration (IC50) (commonly the concentration that gives 50% inhibition) is greater than 50 µM.

For the compound `CC1=CC(=O)c2c(O)cccc2C1=O` [Compound 2, Plumbagin, reference compound], the IC50 was greater than 50 µM in series [2] and less than 10 µM in series [3].

As for `O=C1C(SCCO)=C(SCCO)C(=O)c2ccccc21` [Compound 4, 2,3-bis-[(2-hydroxyethyl)thio]-1,4-naphthoquinone, reference compound], the “Kd (μM) vs MKK7” value in series [1] is listed as “in the micromolar range”. The IC50 in series [2] was greater than 50 µM; in series [3], less than 10 µM. For the same compound, the “Kd for MKK4” value in series [4] was “No MKK4 binding affinity”.

In turn, `CC1=C(SCCO)C(=O)c2ccccc2C1=O` [Compound 5, reference compound] displayed a dissociation constant Kd in series [1] greater than 30 µM. The same compound came in with an IC50 in series [2] greater than 50 µM.

Take `O=C(O)CSC1=CC(=O)c2ccccc2C1=O` [Compound 6]: in series [2], the half-maximal inhibitory concentration (IC50) is greater than 50 µM. The same compound came in with an equilibrium dissociation constant (Kd) in series [4] of 19.5 ± 0.7 µM. For the same compound, in series [3] (up to 50 μM), the “cytotoxicity toward tumor cell lines and PBMCs (in words)” value was “weakly active or inactive”.

In the case of `O=C(O)CCSC1=CC(=O)c2ccccc2C1=O` [Compound 7, 3-[(1,4-dioxonaphthalen-2-yl)sulfanyl]propanoic acid], the “fold more active than 6 (MKK7)” value in series [1] (compared with compound 6) worked out at 6 fold. In series [2], this compound gave an IC50 greater than 50 µM. The “Kd for MKK4” value in series [4] was “No MKK4 binding affinity”.

Turning to `CC(SC1=CC(=O)c2ccccc2C1=O)C(=O)O` (centres unmarked) [Compound 8], the “Kd for MKK4” value in series [4] is “No MKK4 binding affinity”.

In turn, `CC1=C(SCCC(=O)O)C(=O)c2ccccc2C1=O` [Compound 9, vitamin ks-II, reference compound] displayed an IC50 in series [2] greater than 50 µM.

With `CCSC1=C(C)C(=O)c2ccccc2C1=O` [Compound 10], the IC50 was greater than 50 µM in series [2] and less than 10 µM in series [3].

For `COCCSC1=C(C)C(=O)c2ccccc2C1=O` [Compound 11], the concentration for half-maximal inhibition (IC50) in series [2] was greater than 50 µM; in series [3], less than 10 µM.

As for `CC1=C(SC(C)C)C(=O)c2ccccc2C1=O` [Compound 12], the IC50 in series [2] was greater than 50 µM; in series [3], less than 10 µM.

Take `CSC1=C(SC)C(=O)c2ccccc2C1=O` [Compound 13]: the IC50 in series [2] was greater than 50 µM; in series [3], less than 10 µM.

As for `COC1=C(OC)C(=O)c2ccccc2C1=O` [Compound 15], in series [1], the “Kd (μM) vs MKK7” value was “almost complete loss of binding affinity”. Moreover, the IC50 in series [2] was greater than 50 µM.

The compound `COC1=CC(=O)c2ccccc2C1=O` [Compound 16] registered an IC50 in series [2] greater than 50 µM.

For `CC1=CC(=O)c2ccccc2C1=O` [Compound 18, menadione, reference compound], in series [1], the Kd is greater than 30 µM and the “Kd (μM) vs MKK7” value is reported as “did not bind”. The compound further showed a concentration for half-maximal inhibition (IC50) in series [2] greater than 50 µM. The IC50 in series [3] is less than 10 µM.

With `O=C1C(O)=C(CN(CCCl)CCCl)C(=O)c2ccccc21` [Compound 19], the half-inhibitory concentration (IC50) in series [2] was greater than 50 µM.

With `CC(C)(C)[C@H]1CC[C@H](CC2=C(O)C(=O)c3ccccc3C2=O)CC1` [Compound 21, buparvaquone, reference compound], in series [1], the Kd is greater than 30 µM and the “Kd (μM) vs MKK7” value is reported as “did not bind”. Besides, the half-maximal inhibitory concentration (IC50) in series [2] is greater than 50 µM. Also, the half-inhibitory concentration (IC50) in series [5] is greater than 50 µM.

For `O=C(O)CNC1=C(Cl)C(=O)c2ccccc2C1=O` [Compound 22a, (3-Chloro-1,4-dioxo-1,4-dihydro-naphthalen-2-ylamino)-acetic acid], the IC50 in series [6] and in series [2] was greater than 50 µM in each case.

For `O=C(O)CCCNC1=C(Cl)C(=O)c2ccccc2C1=O` [Compound 22c, 4-(3-Chloro-1,4-dioxo-1,4-dihydro-naphthalen-2-ylamino)-butyric acid], in series [2], the IC50 was greater than 50 µM.

As to `O=C(O)c1cccc(NC2=C(Cl)C(=O)c3ccccc3C2=O)c1` [Compound 22e, 3-(3-Chloro-1,4-dioxo-1,4-dihydro-naphthalen-2-ylamino)-benzoic acid], the figures for the 50% inhibitory concentration (IC50) in series [2] and in series [3] were greater than 50 µM and less than 10 µM, respectively. The “Kd for MKK4” value in series [4] is given as “No MKK4 binding affinity”.

With `O=C(O)c1ccc(NC2=C(Cl)C(=O)c3ccccc3C2=O)cc1` [Compound 22f, 4-(3-Chloro-1,4-dioxo-1,4-dihydro-naphthalen-2-ylamino)-benzoic acid], the figures for the IC50 in series [2] and in series [3] were greater than 50 µM and less than 10 µM, respectively.

In turn, `COC(=O)c1ccc(NC2=C(Cl)C(=O)c3ccccc3C2=O)cc1` [Compound 22g, 4-(3-Chloro-1,4-dioxo-1,4-dihydro-naphthalen-2-ylamino)-benzoic acid methyl ester] returned an IC50 in series [2] greater than 50 µM.

As for `O=C1C(Cl)=C(NCCO)C(=O)c2ccccc21` [Compound 23a, 2-Chloro-3-(2-hydroxy-ethylamino)-1,4-naphthoquinone], the IC50 in series [6] and in series [2] was greater than 50 µM throughout.

As to `O=C1C(Cl)=C(NCCCO)C(=O)c2ccccc21` [Compound 23b, 2-Chloro-3-(3-hydroxy-propylamino)-1,4-naphthoquinone], the IC50 in series [6] and in series [2] was greater than 50 µM each time.

As to `O=C1C(Cl)=C(NCCCN2CCOCC2)C(=O)c2ccccc21` [Compound 24, 2-Chloro-3-(3-morpholin-4-yl-propylamino)-1,4-naphthoquinone], the 50% inhibitory concentration (IC50) in series [6], in series [2] and in series [5] was greater than 50 µM in each case. The “Cdc25B IC50 (μM)” value in series [6] (recombinant Cdc25B, OMFP substrate, 25 °C) was “inactive”. In addition, the “Cdc25A IC50 (μM)” value in series [5] (recombinant Cdc25A, OMFP substrate, 25 °C) was “inactive”.

In turn, `COC(=O)c1ccc(NC2=C(N3CCCCC3)C(=O)c3ccccc3C2=O)cc1` [Compound 25a, 4-(1,4-Dioxo-3-piperidin-1-yl-1,4-dihydro-naphthalen-2-ylamino)-benzoic acid methyl ester] came in with a dissociation constant (Kd) in series [1] greater than 30 µM. In series [2], the IC50 is greater than 50 µM.

`COC(=O)c1ccc(NC2=C(OC)C(=O)c3ccccc3C2=O)cc1` [Compound 25b, 4-(3-Methoxy-1,4-dioxo-1,4-dihydro-naphthalen-2-ylamino)-benzoic acid methyl ester]: the IC50 in series [6], in series [2] and in series [5] was greater than 50 µM in each case.
